Key:
Cbl-b = molecular target: T1, Cbl-b (Homo sapiens, UniProt Q13191); experiment: Cbl-b probe displacement HTRF binding assay; settings: 0.4 nM Cbl-b, 150 nM BODIPY probe
T1 construct: biotin (biotinylated protein)
Outline: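 Compound competes with BODIPY probe (150 nM) for biotinylated Cbl-b (0.4 nM) in HEPES/NaCl/Triton/TCEP/BSA buffer; 60 min preincubation, 15 min with probe, room temperature. Tb-streptavidin HTRF read; % displacement vs DMSO and no-protein controls, IC50 from four-parameter fit.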

Jurkat cells = experiment: IL-2 secretion assay in Jurkat cells activated with CD3/CD28 T Cell Activator; assay type: cell-based; settings: Homo sapiens; Jurkat cells, CD3/CD28 T Cell Activator, 24 h, IL-2 AlphaLISA; read-out: IL-2 Secretion (EC50)
Description: Certain compounds were also evaluated in an IL-2 secretion assay. On the day of the assay, a 16 point, 1:2 master serial dilution of each compound was prepared in Opti-MEM to span a final concentration range of 10 μM to 300 pM. Assays were set up in CORNING® tissue culture-treated 384-well microplates containing 60 nL of each dilution. Jurkat cells grown in RPMI-1640 supplemented with 10% FBS, 1% Glutamax, and 1% Pen/Strep were collected, resuspended in Opti-MEM. 50,000 cells/well and added to the compound plates. After a short spin (1200 rpm for 1 min), the plates were incubated at 37° C. for 1 hour. The cells were activated by adding 15 μL of IMMUNOCULT™ Human CD3/CD28 T Cell Activator (STEMCELL Technologies) diluted in Opti-MEM. After 24 h of incubation at 37° C., aliquots of culture supernatants were transferred to OptiPlate-384 (PerkinElmer) microplates. The level of IL-2 secretion in the supernatants was then determined using the IL-2 (human) AlphaLISA Detection Kit (PerkinElmer) according to the manufacturer's recommendations. The AlphaLISA signal was measured using an EnVision plate reader (PerkinElmer). EC50 values were determined by fitting the data to a standard 4-parameter logistic equation. See Table 7 for data for select compounds (IL-2 Secretion (EC50)).

T1 sequence (Q13191 whole entry, species assumed): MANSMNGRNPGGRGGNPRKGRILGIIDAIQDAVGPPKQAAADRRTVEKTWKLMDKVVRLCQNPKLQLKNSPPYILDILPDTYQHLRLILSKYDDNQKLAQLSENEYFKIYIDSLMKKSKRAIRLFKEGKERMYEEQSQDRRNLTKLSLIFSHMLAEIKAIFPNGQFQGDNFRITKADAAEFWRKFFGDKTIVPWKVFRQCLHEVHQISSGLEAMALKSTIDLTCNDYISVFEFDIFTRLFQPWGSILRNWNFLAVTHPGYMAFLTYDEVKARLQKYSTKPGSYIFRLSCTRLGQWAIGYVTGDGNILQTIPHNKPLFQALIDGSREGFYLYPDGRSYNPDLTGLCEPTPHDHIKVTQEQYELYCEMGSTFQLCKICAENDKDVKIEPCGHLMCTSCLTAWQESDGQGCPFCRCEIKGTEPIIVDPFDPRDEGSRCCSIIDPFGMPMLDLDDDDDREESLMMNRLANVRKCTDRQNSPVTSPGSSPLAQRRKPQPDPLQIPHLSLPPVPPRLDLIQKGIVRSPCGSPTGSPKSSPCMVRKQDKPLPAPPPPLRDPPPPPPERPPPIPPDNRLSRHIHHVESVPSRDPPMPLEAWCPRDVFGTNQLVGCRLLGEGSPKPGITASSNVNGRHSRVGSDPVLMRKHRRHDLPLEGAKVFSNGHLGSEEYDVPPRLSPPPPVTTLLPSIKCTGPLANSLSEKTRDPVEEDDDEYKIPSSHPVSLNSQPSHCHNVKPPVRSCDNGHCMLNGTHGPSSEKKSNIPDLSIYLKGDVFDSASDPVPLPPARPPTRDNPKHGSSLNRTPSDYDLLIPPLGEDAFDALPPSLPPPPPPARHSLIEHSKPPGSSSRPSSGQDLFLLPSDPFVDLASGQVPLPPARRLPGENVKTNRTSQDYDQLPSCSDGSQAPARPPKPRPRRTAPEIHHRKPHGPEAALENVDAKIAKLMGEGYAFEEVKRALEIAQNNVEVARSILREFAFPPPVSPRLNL

Row | Structure (SMILES) | IC50 (Cbl-b) [nM] | EC50 (Jurkat cells) [nM]
1 | COCCNCc1cc(C(=O)Nc2cc(-c3ccc(F)cc3-n3nncc3CF)cc(C3CC3)n2)c(=O)n(C2CC2)c1 [Example 72, 1-Cyclopropyl-N-[6-cyclopropyl-4-[4-fluoro-2-[5-(fluoromethyl)triazol-1-yl]phenyl]pyridin-2-yl]-5-[(2-methoxyethylamino)methyl]-2-oxopyridine-3-carboxamide] | < 100 | 100 to 1000
2 | COCCNCc1cc(C(=O)Nc2cc(-c3ccc(F)cc3-n3nccc3C)cc(C3CC3)n2)c(=O)n(C2CC2)c1 [Example 70, 1-Cyclopropyl-N-[6-cyclopropyl-4-[4-fluoro-2-(5-methylpyrazol-1-yl)phenyl]pyridin-2-yl]-5-[(2-methoxyethylamino)methyl]-2-oxopyridine-3-carboxamide] | < 100 | 100 to 1000
3 | COC[C@H](C)NCc1cc(C(=O)Nc2cc(-c3ccc(F)cc3-c3nncn3C)cc(C3CC3)n2)c(=O)n(C2CC2)c1 [Example 18, N-{6-cyclopropyl-4-[4-fluoro-2-(4-methyl-4H-1,2,4-triazol-3-yl)phenyl]-2-pyridyl}-5-{[(S)-2-methoxy-1-methylethylamino]methyl}-1-cyclopropyl-2-oxo-1,2-dihydronicotinamide] | < 100 | < 100
4 | COC[C@@H](C)NCc1cc(C(=O)Nc2cc(-c3ccc(F)cc3-c3nncn3C)cc(C3CC3)n2)c(=O)n(C2CC2)c1 [Example 21, N-{6-cyclopropyl-4-[4-fluoro-2-(4-methyl-4H-1,2,4-triazol-3-yl)phenyl]-2-pyridyl}-5-{[(R)-2-methoxy-1-methylethylamino]methyl}-1-cyclopropyl-2-oxo-1,2-dihydronicotinamide] | < 100 | < 100
5 | CO[C@H]1CCC[C@@H]1NCc1cc(C(=O)Nc2cc(-c3ccc(C#N)cc3C(=O)N3CC(F)(F)C3)cc(C3CC3)n2)c(=O)n(CC(F)(F)F)c1 [Example 154, N-[4-[4-cyano-2-(3,3-difluoroazetidine-1-carbonyl)phenyl]-6-cyclopropylpyridin-2-yl]-5-[[[(1S,2S)-2-methoxycyclopentyl]amino]methyl]-2-oxo-1-(2,2,2-trifluoroethyl)pyridine-3-carboxamide] | < 100 | < 100
6 | COCCNCc1cc(C(=O)Nc2cc(-c3ccc(C#N)cc3-c3nncn3C)cc(C3CC3)n2)c(=O)n(C2CC2)c1 [Example 3, N-[4-[4-cyano-2-(4-methyl-1,2,4-triazol-3-yl)phenyl]-6-cyclopropylpyridin-2-yl]-1-cyclopropyl-5-[(2-methoxyethylamino)methyl]-2-oxopyridine-3-carboxamide] | < 100 | < 100
7 | CO[C@H]1CCN(Cc2cc(C(=O)Nc3cc(-c4ccc(F)cc4-c4nncn4C)cc(C4CC4)n3)c(=O)n(C3CC3)c2)C1 [Example 16, N-{6-cyclopropyl-4-[4-fluoro-2-(4-methyl-4H-1,2,4-triazol-3-yl)phenyl]-2-pyridyl}-5-{[(S)-3-methoxy-1-pyrrolidinyl]methyl}-1-cyclopropyl-2-oxo-1,2-dihydronicotinamide] | < 100 | 100 to 1000
8 | COCCN(C)Cc1cc(C(=O)Nc2cc(-c3ccc(F)cc3-c3nncn3C)cc(C3CC3)n2)c(=O)n(C2CC2)c1 [Example 6, N-{6-cyclopropyl-4-[4-fluoro-2-(4-methyl-4H-1,2,4-triazol-3-yl)phenyl]-2-pyridyl}-1-cyclopropyl-5-{[(2-methoxyethyl)-N-methylamino]methyl}-2-oxo-1,2-dihydronicotinamide] | < 100 | 1000 to 5000
9 | CO[C@H]1C[C@](c2cccc(NC(=O)c3cc(CN4CCC[C@H](C)C4)cn(C4CC4)c3=O)c2)(c2nncn2C)C1 [Example 81, 1-cyclopropyl-N-[3-[3-methoxy-1-(4-methyl-1,2,4-triazol-3-yl)cyclobutyl]phenyl]-5-[[(3S)-3-methylpiperidin-1-yl]methyl]-2-oxopyridine-3-carboxamide] | 100 to 1000 | 100 to 1000
10 | CN1C[C@@H]2C[C@H]1CN2Cc1cc(C(=O)Nc2cc(-c3ccc(C#N)cc3-c3nccn3C)cc(C3CC3)n2)c(=O)n(C2CC2)c1 [Example 38, N-{4-[4-cyano-2-(1-methyl-2-imidazolyl)phenyl]-6-cyclopropyl-2-pyridyl}-5-({(1S,4S)-5-methyl-2,5-diazabicyclo[2.2.1]hept-2-yl}methyl)-1-cyclopropyl-2-oxo-1,2-dihydronicotinamide] | 100 to 1000 | 1000 to 5000

The remaining lines, values ahead:

Row | IC50 (Cbl-b) [nM] | EC50 (Jurkat cells) [nM] | Structure (SMILES)
11 | < 100 | < 100 | CC(C)Cn1cc(CN2CCC[C@H](C)C2)cc(C(=O)Nc2cc(-c3ccc(F)cc3-c3nncn3C)cc(C3CC3)n2)c1=O [Example 61, N-[6-cyclopropyl-4-[4-fluoro-2-(4-methyl-1,2,4-triazol-3-yl)phenyl]pyridin-2-yl]-5-[[(3S)-3-methylpiperidin-1-yl]methyl]-1-(2-methylpropyl)-2-oxopyridine-3-carboxamide]
12 | < 100 | < 100 | CC(C)n1cc(CN2CCC[C@H](C)C2)cc(C(=O)Nc2cc(-c3ccc(F)cc3-c3nncn3C)cc(C3CC3)n2)c1=O [Example 57, N-[6-cyclopropyl-4-[4-fluoro-2-(4-methyl-1,2,4-triazol-3-yl)phenyl]pyridin-2-yl]-5-[[(3S)-3-methylpiperidin-1-yl]methyl]-2-oxo-1-propan-2-ylpyridine-3-carboxamide]
13 | < 100 | < 100 | COCCNCc1cc(C(=O)Nc2cc(-c3ccc(C#N)cc3-c3nccn3C)cc(C3CC3)n2)c(=O)n(C2CC2)c1 [Example 42, N-{4-[4-cyano-2-(1-methyl-2-imidazolyl)phenyl]-6-cyclopropyl-2-pyridyl}-1-cyclopropyl-5-[(2-methoxyethylamino)methyl]-2-oxo-1,2-dihydronicotinamide]
14 | < 100 | < 100 | COCCNCc1cc(C(=O)Nc2cc(-c3ccc(F)cc3-c3nncn3C)cc(C3CC3)n2)c(=O)n(C2CC2)c1 [Example 4, 1-cyclopropyl-N-[6-cyclopropyl-4-[4-fluoro-2-(4-methyl-1,2,4-triazol-3-yl)phenyl]pyridin-2-yl]-5-[(2-methoxyethylamino)methyl]-2-oxopyridine-3-carboxamide]
15 | < 100 | 100 to 1000 | C[C@H]1CCCN(Cc2cc(C(=O)Nc3cc(-c4ccc(F)cc4C(=O)N4CC(F)C4)cc(C4CC4)n3)c(=O)n(C3CC3)c2)C1 [Example 65, N-(6-cyclopropyl-4-{4-fluoro-2-[(3-fluoro-1-azetidinyl)carbonyl]phenyl}-2-pyridyl)-5-{[(S)-3-methyl-1-piperidyl]methyl}-1-cyclopropyl-2-oxo-1,2-dihydronicotinamide]
16 | < 100 | < 100 | C[C@H]1CCCN(Cc2cc(C(=O)Nc3cc(-c4ccc(C#N)cc4-c4nccn4C)cc(C4CC4)n3)c(=O)n(C3CC3)c2)C1 [Example 43, N-{4-[4-cyano-2-(1-methyl-2-imidazolyl)phenyl]-6-cyclopropyl-2-pyridyl}-5-{[(S)-3-methyl-1-piperidyl]methyl}-1-cyclopropyl-2-oxo-1,2-dihydronicotinamide]
17 | < 100 | < 100 | CO[C@H](C)CNCc1cc(C(=O)Nc2cc(-c3ccc(F)cc3-c3nncn3C)cc(C3CC3)n2)c(=O)n(C2CC2)c1 [Example 20, N-{6-cyclopropyl-4-[4-fluoro-2-(4-methyl-4H-1,2,4-triazol-3-yl)phenyl]-2-pyridyl}-5-{[(R)-2-methoxypropylamino]methyl}-1-cyclopropyl-2-oxo-1,2-dihydronicotinamide]

From patent US20260116868A1 (Arcus Biosciences, Inc., priority 2023, published 2026)
